Several values for one entry are separate records, joined by “and”; a condition that tells them apart may be missing. Equal entries are not always repeated. Structures can show the parent of a compound that is named as a salt. Where two headings read alike, the source gives them in different places.
Legend:
[1] = tested on: Toxizität des Yohimbins; test: Potentiation of yohimbine toxicity; assay type: in vivo, Maus; settings: for minimal effective dose: Mus musculus, ip; for Erste wirksame Dosis Yohimbin: mouse, i.p.
Method: Wirkung auf die Toxizität des Yohimbins
Zur Zeit 0 erhalten die Mäuse entweder destilliertes Wasser oder verschiedene zu untersuchende Verbindungen i.p. 30 Minuten danach verabreicht man ihnen subkutan eine infratoxische Dosis von 25 mg/kg Yohimbinchlorhydrat.
Die Mortalität wird jede Stunde über einen Zeitraum von 4 Stunden verfolgt und dann nach 24 Stunden notiert.
Die eine antidepressive Aktivität besitzenden Produkte verursachen eine Potenzierung der Toxizität des Yohimbins.

[2] = tested on: durch Reserpin induzierten Hypothermie; test: Antireserpine activity (reserpine-induced hypothermia); assay type: in vivo, Maus
Method: Zur Zeit 0 erhalten die Mäuse intraperitoneal Reserpin (2,5 mg/kg).
4 Stunden danach, wenn die Hypothermie genügend stark erscheint (30 bis 33°C), verabreicht man die verschiedenen zu untersuchenden Verbindungen i.p. oder p.o. Alle 30 Minuten über einen Zeitraum von 2 Stunden mißt man die Rektaltemperatur mit einer auf konstante Tiefe eingeführten, ein Thermoelement tragenden Sonde. Die Rektaltemperatur der mit verschiedenen erfindungsgemäßen Verbindungen behandelten Tiere wird mit der Temperatur einer Kontrollgruppe verglichen, die destilliertes Wasser auf die gleiche Weise wie die untersuchten Verbindungen erhält.
Die Akinesie (fehlende Bewegungen) und Ptose (Öffnungsgrad des Augenlids von 0 bis 4 nach Rubin u.a 1957) werden ebenfalls alle 30 Minuten über einen Zeitraum von 2 Stunden bewertet.
Die eine antidepressive Aktivität besitzenden Produkte wirken der durch Reserpin induzierten Hypothermie entgegen. Für jede Dosis der verabreichten Verbindung berechnet man die prozentuale Hemmung der Hypothermie.

[3] = tested on: Apomorphin 16 mg/kg; test: Antiapomorphine activity (apomorphine 16 mg/kg s.c., hypothermia); assay type: in vivo, Maus
Method: Zur Zeit 0 nach Ausgleich der Reaktaltemperaturen werden die Mäuse (6 pro Gruppe) in deren Beobachtung gestattende Einzelkäfige (11 x 3,5 x 4 cm) eingeetzt. 30 Minuten nach i.p. bzw. p.o. Verabreichung der Testsubstanz erhalten sie Apomorphin subkutan in einer Dosis von 16 mg/kg. Die Rektaltemperatur wird 30 Minuten nach dem Apomorphin gemessen. Die Kontrolltiere erhalten destilliertes Wasser statt der zu untersuchenden Verbindungen. Die bei diesen Kontrolltieren, die 16 mg/kg Apomorphin erhalten haben, beobachtete Hypothermie liegt im Durchschnitt bei 33°C. Für jede Verbindungsdosis berechnet man die prozentuale Hemmung der Hypothermie.

[4] = tested on: Motoraktivität; test: Actimetry (motor activity, photocell actimeter); assay type: in vivo, Maus; settings: mouse; direction of change of motor activity
Source text: Die Motoraktivität wird mittels Photozellenaktimetern bestimmt (Boissier und Simon, Arch. Int. Pharmacodyn. 1965, 158, 212-221).
Die Mäuse (10 oder ein Vielfaches von 10 pro Gruppe) werden unmittelbar nach i.p. Verabreichung der zu untersuchenden Verbindungen in das Aktimeter eingesetzt. Die Motoraktivität wird danach bis zur 60. Minute gemessen. De Zähler werden nach 30 Minuten abgelesen und dann auf 0 zurückgestellt und im Verlauf von 30 Minuten alle 10 Minuten abgelesen.
Die Beweglichkeit der mit den verschiedenen Verbindungen behandelten Tiere wird mit derjenigen einer destilliertes Wasser erhaltenden Kontrollgruppe verglichen.
Die eine psychostimulierende Aktivität besitzenden Produkte verursachen eine Zunahme der Beweglichkeit.

[5] = tested on: Maus; test: Tail suspension test; assay type: in vivo; settings: ip; mouse, i.p.; footnote of Tabelle 1; read-out: tail suspension test= positiv ab
Source text: Schwanzaufhängungstest an der Maus wie von Stéru u.a. beschrieben (Psychopharmacology 85, 367-370, 1985).
Die Substanzen werden intraperitoneal 30 Minuten vor dem Test verabreicht und die Tiese isoliert (10 Mäuse pro Dosis).
Man bewertet die Dauer der Unbeweglichkeit, ausgedrückt in Sekunden über die 6 Minuten des Tests. Man untersucht auf eine Verkürzung dieser Unbeweglichkeitszeit.

[6] = tested on: L-5-Hydroxytryptophan; test: Potentiation of L-5-hydroxytryptophan effects (head twitches, tremor); assay type: in vivo, Maus; settings: mouse, 1 mg/kg i.p., 30 min before L-5 HTP 4 mg/kg i.p.
Method: L-5 HTP induziert an der Maus ruckartige Bewegungen des Kopfes (Kopfzuckungen). Die zu untersuchenden Substanzen werden den Tieren (10 Mäuse pro Dosis) intraperitoneal 30 Minuten vor dem L-5 HTP (4 mg/kg intraperitoneal) verabreicht. Die ruckartigen Kopfbewegungen und der Tremor werden 1 Minutre lang alle 10 Minuten im Verlauf einer Stunde bewertet. Desimipramin und Indalpin sind die Kontrol-(Vergleichs-)verbindungen. Ein antidepressiver Effekt zeigt sich durch eine Zunahme der ruckartigen Kopfbewegungen und des Tremors.

[7] = tested on: Maus; test: Hot plate test (licking and jumping), analgesia; assay type: in vivo
Method: Heizplattentest: Lecken und Springen, wie von Jacob und Blozovski beschrieben (Arch. Int. Pharmacodyn. 133, 296-209, 1961).
Die in Sekunden ausgedrückten Reaktionszeiten auf einer Heizplatte werden unter Berücksichtigung des Leckens der Vorderpfoten und Springen des Tieres als Kriterien bewertet. Die beiden Reaktionen werden am selben, anfänglich untrainierten Tier mit einer maximalen Ansprechzeit (Obergrenze) von 240 Sekunden beobachtet. Die Temperatur der Platte wird auf 56,6°C gehalten.
Morphin als positive Kontrolle wird subkutan und die übrigen Substanzen (mg/kg) werden intraperitoneal 30 Minuten vor dem Test verabreicht. Positives Ansprechen zeigt sich in einer Zunahme der Reaktionszeit.
Wird der schadensverhütenden Wirkung eine Substanz durch Naloxon entegengewirkt, so kann man schließen, daß die Substanz tatsächlich eine analgetische Wirkung besitzt.

[8] = read-out: Erste wirksame Dosis Yohimbin, mouse, i.p., only or lowest value of the cell
[9] = Mus musculus, ip, read-out: Erste wirksame Dosis Reserpin, mouse, i.p., only or lowest value of the cell
[10] = Mus musculus, ip, read-out: Erste wirksame Dosis Apomorphin 16 mg/kg, mouse, i.p., only or lowest value of the cell
[11] = ip, mouse, i.p., only or lowest value of the cell, read-out: Erste wirksame Dosis Reserpin
[12] = ip, mouse, i.p., only or lowest value of the cell, read-out: Erste wirksame Dosis Apomorphin 16 mg/kg
[13] = mouse, i.p., only or lowest value of the cell
[14] = Mus musculus, read-out: Erste wirksame Dosis Apomorphin 16 mg/kg, mouse, further value in the same cell, route not stated (lowest = i.p.; p.o. also tested)
[15] = only or lowest value of the cell
[16] = mouse, reaction time, 8 mg/kg i.p., plate 56,6°C
[17] = mouse, Tabelle 5a, Naloxon alone 0,5 mg/kg

Oc1ccc([C@@H]2CCNC[C@H]2c2ccccc2)cc1 (racemic) [7 (1.Stufe), trans-4-(4-Hydroxyphenyl)-3-phenylpiperidin-bromhydrat]
minimal effective dose [1, 8]: 4 mg/kg
minimal effective dose ([1]; read-out: Erste wirksame Dosis Yohimbin, mouse, further value in the same cell, route not stated (lowest = i.p.)): 16 mg/kg
minimal effective dose [2, 9]: 32 mg/kg
minimal effective dose [3, 10]: 0.5 mg/kg
Aktimetrie [4]: ↘

COc1ccc([C@@H]2CCNC[C@H]2c2ccccc2)cc1 (racemic) [Beispiel 2, trans-4-(4-Methoxyphenyl)-3-phenylpiperidinchlorhydrat]
minimal effective dose [5]: ≥ 8 mg/kg
minimal effective dose [2, 11]: 4 mg/kg
minimal effective dose [3, 12]: 1 mg/kg
minimal effective dose ([3]; mouse, further value in the same cell, route not stated (lowest = i.p.; p.o. also tested), read-out: Erste wirksame Dosis Apomorphin 16 mg/kg): 2 mg/kg
Aktimetrie [4]: ↘

CC(=O)Oc1ccc([C@@H]2CCNC[C@H]2c2ccccc2)cc1 (racemic) [Beispiel 11, trans-4-(4-Acetoxyphenyl)-3-phenylpiperidinchlorhydrat]
minimal effective dose [1, 8]: 16 mg/kg
minimal effective dose [2, 11]: 4 mg/kg
minimal effective dose [3, 12]: 1 mg/kg

Cc1ccc([C@@H]2CCNC[C@H]2c2ccccc2)cc1 (relative stereo) [10 (Base), trans-4-(4-Methylphenyl)-3-phenylpiperidin]
minimal effective dose [1, 8]: 16 mg/kg
Erste wirksame Dosis Reserpin [2, 13]: 16 mg/kg
minimal effective dose [3, 10]: 16 mg/kg
minimal effective dose [3, 14]: 32 mg/kg
Aktimetrie [4]: ↘

Cc1ccc([C@@H]2CCNC[C@H]2c2ccccc2)cc1 (relative stereo) [10 (HCl-Salz), trans-4-(4-Methylphenyl)-3-phenylpiperidin]
minimal effective dose ([2]; Mus musculus, read-out: Erste wirksame Dosis Reserpin, mouse, further value in the same cell, route not stated (lowest = i.p.; p.o. also tested)): 16 mg/kg
Erste wirksame Dosis Reserpin [2, 13]: 4 mg/kg
Erste wirksame Dosis Apomorphin 16 mg/kg [3, 13]: 16 mg/kg
Aktimetrie [4]: ↘

c1ccc([C@@H]2CCNC[C@H]2c2ccccc2)cc1 (relative stereo) [21 (HCl-Salz), trans-3,4-Diphenylpiperidin]
Erste wirksame Dosis Yohimbin [1, 15]: 16 mg/kg
Erste wirksame Dosis Reserpin [2, 13]: 4 mg/kg
Erste wirksame Dosis Apomorphin 16 mg/kg [3, 13]: 4 mg/kg
Aktimetrie [4]: ↗

Clc1ccc(C2CNCCC2c2ccccc2)cc1 (stereo not drawn) [8 (Base), trans-3-(4-Chlorphenyl)-4-phenylpiperidin]
minimal effective dose [2, 9]: 8 mg/kg
minimal effective dose [3, 10]: 16 mg/kg
Aktimetrie [4]: ↘

Clc1ccc(C2CNCCC2c2ccccc2)cc1 (stereo not drawn) [8 (HCl-Salz), trans-3-(4-Chlorphenyl)-4-phenylpiperidin]
minimal effective dose [1, 8]: 16 mg/kg
Erste wirksame Dosis Reserpin [2, 13]: 4 mg/kg
Erste wirksame Dosis Apomorphin 16 mg/kg [3, 13]: 8 mg/kg
Aktimetrie [4]: ↘

Clc1ccc([C@@H]2CCNC[C@H]2c2ccccc2)cc1Cl [15 (Base)]
Erste wirksame Dosis Yohimbin [1, 15]: 4 mg/kg
Erste wirksame Dosis Reserpin [2, 13]: 0,5 mg/kg
Erste wirksame Dosis Apomorphin 16 mg/kg [3, 13]: 0,5 mg/kg
Aktimetrie [4]: ↗

Clc1ccc(C2CNCCC2c2ccccc2)cc1Cl (stereo not drawn) [Beispiel 13, trans-3-(3,4-Dichlorphenyl)-4-phenyl-piperidin-maleinat]
minimal effective dose [1, 8]: 16 mg/kg
minimal effective dose [2, 9]: 8 mg/kg
minimal effective dose [3, 10]: 4 mg/kg
Aktimetrie [4]: ↘

Clc1ccc([C@@H]2CCNC[C@H]2c2ccccc2)cc1 [Beispiel 18]
minimal effective dose [1, 8]: 1 mg/kg
minimal effective dose [2, 9]: 0.5 mg/kg
minimal effective dose [3, 10]: 0.5 mg/kg
minimal effective dose [3, 14]: 2 mg/kg
Aktimetrie [4]: ↗

c1ccc2c(CCC3CCNCC3)c[nH]c2c1 [Indalpin, reference compound]
Tremor [6]: 2,0 ± 0,7
ruckartige Kopfbewegungen [6]: 4,1 ± 0,7 p < 0,01
Pfotenlecken [7, 16]: 8,4 ± 1,2 p < 0,02 Sekunden
Sprünge [7, 16]: 132 ± 12 p ± 0,01 Sekunden

CN1CC[C@]23c4c5ccc(O)c4O[C@H]2[C@@H](O)C=C[C@H]3[C@H]1C5 [Morphin, reference compound]
Pfotenlecken ([7]; in vivo, sc, 2 mg/kg): 8,1 ± 0,6 p < 0,01 Sekunden
Sprünge ([7]; in vivo, sc, 2 mg/kg): 158 ± 17 p < 0,01 Sekunden

C=CCN1CC[C@]23c4c5ccc(O)c4O[C@H]2C(=O)CC[C@@]3(O)[C@H]1C5 [Naloxon, reference compound]
Pfotenlecken [7, 17]: 5,5 ± 0,3 Sekunden and 5,2 ± 0,3 Sekunden
Sprünge [7, 17]: 63 ± 6 Sekunden and 67 ± 5 Sekunden

Source: patent EP0273199A2, “Uses of 3,4-diphenyl piperidine derivatives or medicines, 3,4-diphenyl piperidine derivatives, and process for their preparation” (LABORATOIRES HOECHST S.A., priority 1986, dated 1988)
